Data taken from publication PMC11062906 (Nature, 2024).
Several values for one entry are separate records, joined by “and”; a condition that tells them apart may be missing. Equal values may be shown once. Entries after “also recorded” stand apart in the source; their conditions may differ.

Legend:
[1] = target: T1, BmGr9 (Bombyx mori, UniProt B3GTD7); experiment: Cell-based GCaMP calcium flux assay, wild-type BmGr9; details: for Activation of BmGr9 (change in fluorescence) by sweet compound: 100 mM sweet compound, HEK293 cells with BmGr9 plus GCaMP vs GCaMP only
T1 sequence (B3GTD7 entry or part of it): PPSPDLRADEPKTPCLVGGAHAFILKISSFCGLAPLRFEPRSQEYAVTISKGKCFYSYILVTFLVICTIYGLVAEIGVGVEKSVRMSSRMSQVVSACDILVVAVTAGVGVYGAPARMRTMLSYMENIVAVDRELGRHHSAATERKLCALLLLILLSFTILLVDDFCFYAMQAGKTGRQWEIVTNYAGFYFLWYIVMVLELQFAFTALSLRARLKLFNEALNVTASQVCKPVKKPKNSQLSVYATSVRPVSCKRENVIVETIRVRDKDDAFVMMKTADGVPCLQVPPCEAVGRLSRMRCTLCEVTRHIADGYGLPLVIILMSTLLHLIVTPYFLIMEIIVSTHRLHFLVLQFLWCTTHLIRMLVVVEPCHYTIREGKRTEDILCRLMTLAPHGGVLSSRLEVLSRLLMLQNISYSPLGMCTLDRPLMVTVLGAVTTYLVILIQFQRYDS

[2] = tested on: BmGr9 Q445K; experiment: GCaMP calcium flux assay, BmGr9 Q445K; assay type: cell-based, Bombyx mori
[3] = tested on: BmGr9 Q443A; experiment: GCaMP calcium flux assay, BmGr9 Q443A; assay type: cell-based, Bombyx mori
[4] = target: BmGr9 Q351N (Bombyx mori, UniProt B3GTD7, Q351N); experiment: GCaMP calcium flux assay, BmGr9 Q351N; assay type: cell-based
BmGr9 Q351N, sequence (B3GTD7 entry or part of it Q351N): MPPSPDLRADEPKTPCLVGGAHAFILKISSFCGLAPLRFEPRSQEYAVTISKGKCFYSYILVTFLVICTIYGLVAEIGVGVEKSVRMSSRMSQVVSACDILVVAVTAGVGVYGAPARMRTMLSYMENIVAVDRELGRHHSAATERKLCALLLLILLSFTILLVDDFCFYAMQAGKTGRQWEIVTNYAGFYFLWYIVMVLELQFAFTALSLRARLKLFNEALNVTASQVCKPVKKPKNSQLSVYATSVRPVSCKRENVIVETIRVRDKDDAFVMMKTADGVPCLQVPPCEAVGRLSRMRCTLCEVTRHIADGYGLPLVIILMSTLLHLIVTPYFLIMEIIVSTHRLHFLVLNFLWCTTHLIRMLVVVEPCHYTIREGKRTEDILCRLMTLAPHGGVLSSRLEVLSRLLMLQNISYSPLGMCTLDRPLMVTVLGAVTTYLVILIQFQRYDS

[5] = target: T1, BmGr9; experiment: Intrinsic tryptophan fluorescence of detergent-solubilized purified BmGr9; assay type: binding
[6] = tested on: BmGr9 Y332L; experiment: GCaMP calcium flux assay, BmGr9 Y332L; assay type: cell-based, Bombyx mori
[7] = tested on: BmGr9 F189A; experiment: GCaMP calcium flux assay, BmGr9 F189A; assay type: cell-based, Bombyx mori
[8] = target: BmGr9 Q445A (Bombyx mori, UniProt B3GTD7, Q445A); experiment: GCaMP calcium flux assay, BmGr9 Q445A; assay type: cell-based
BmGr9 Q445A, sequence (B3GTD7 entry or part of it Q445A): as the sequence (B3GTD7 entry or part of it Q351N) above, with N351Q, Q445A counted along it

[9] = target: BmGr9 Q443E (Bombyx mori, UniProt B3GTD7, Q443E); experiment: GCaMP calcium flux assay, BmGr9 Q443E; assay type: cell-based
BmGr9 Q443E, sequence (B3GTD7 entry or part of it Q443E): as the sequence (B3GTD7 entry or part of it Q351N) above, with N351Q, Q443E counted along it

[10] = tested on: BmGr9 Q351E; experiment: GCaMP calcium flux assay, BmGr9 Q351E; assay type: cell-based, Bombyx mori
[11] = tested on: BmGr9 D99A; experiment: GCaMP calcium flux assay, BmGr9 D99A; assay type: cell-based, Bombyx mori
[12] = tested on: HEK293 cells transfected with GCaMP only; experiment: Cell-based GCaMP calcium flux assay, GCaMP-only control cells
[13] = target: BmGr9 P331A (Bombyx mori, UniProt B3GTD7, P331A); experiment: GCaMP calcium flux assay, BmGr9 P331A; assay type: cell-based
BmGr9 P331A, sequence (B3GTD7 entry or part of it P331A): as the sequence (B3GTD7 entry or part of it Q351N) above, with P331A, N351Q counted along it

[14] = target: BmGr9 Q351A (Bombyx mori, UniProt B3GTD7, Q351A); experiment: GCaMP calcium flux assay, BmGr9 Q351A; assay type: cell-based
BmGr9 Q351A, sequence (B3GTD7 entry or part of it Q351A): as the sequence (B3GTD7 entry or part of it Q351N) above, with N351A counted along it

[15] = tested on: BmGr9 D165N; experiment: GCaMP calcium flux assay, BmGr9 D165N; assay type: cell-based, Bombyx mori
[16] = target: BmGr9 Q443D_Q445K (Bombyx mori, UniProt B3GTD7, Q443D/Q445K); experiment: GCaMP calcium flux assay, BmGr9 Q443D_Q445K; assay type: cell-based
BmGr9 Q443D_Q445K, sequence (B3GTD7 entry or part of it Q443D/Q445K): as the sequence (B3GTD7 entry or part of it Q351N) above, with N351Q, Q443D, Q445K counted along it

[17] = tested on: BmGr9 W354F; experiment: GCaMP calcium flux assay, BmGr9 W354F; assay type: cell-based, Bombyx mori
[18] = target: BmGr9 Y332A (Bombyx mori, UniProt B3GTD7, Y332A); experiment: GCaMP calcium flux assay, BmGr9 Y332A; assay type: cell-based
BmGr9 Y332A, sequence (B3GTD7 entry or part of it Y332A): as the sequence (B3GTD7 entry or part of it Q351N) above, with Y332A, N351Q counted along it

[19] = target: BmGr9 Y332F (Bombyx mori, UniProt B3GTD7, Y332F); experiment: GCaMP calcium flux assay, BmGr9 Y332F; assay type: cell-based
BmGr9 Y332F, sequence (B3GTD7 entry or part of it Y332F): as the sequence (B3GTD7 entry or part of it Q351N) above, with Y332F, N351Q counted along it

[20] = target: BmGr9 F189Y (Bombyx mori, UniProt B3GTD7, F189Y); experiment: GCaMP calcium flux assay, BmGr9 F189Y; assay type: cell-based
BmGr9 F189Y, sequence (B3GTD7 entry or part of it F189Y): as the sequence (B3GTD7 entry or part of it Q351N) above, with F189Y, N351Q counted along it

[21] = target: BmGr9 Q443E_Q445A (Bombyx mori, UniProt B3GTD7, Q443E/Q445A); experiment: GCaMP calcium flux assay, BmGr9 Q443E_Q445A; assay type: cell-based
BmGr9 Q443E_Q445A, sequence (B3GTD7 entry or part of it Q443E/Q445A): as the sequence (B3GTD7 entry or part of it Q351N) above, with N351Q, Q443E, Q445A counted along it

[22] = tested on: BmGr9 F333L; experiment: GCaMP calcium flux assay, BmGr9 F333L; assay type: cell-based, Bombyx mori
[23] = target: BmGr9 T330V (Bombyx mori, UniProt B3GTD7, T330V); experiment: GCaMP calcium flux assay, BmGr9 T330V; assay type: cell-based
BmGr9 T330V, sequence (B3GTD7 entry or part of it T330V): as the sequence (B3GTD7 entry or part of it Q351N) above, with T330V, N351Q counted along it

[24] = target: BmGr9 H358A (Bombyx mori, UniProt B3GTD7, H358A); experiment: GCaMP calcium flux assay, BmGr9 H358A; assay type: cell-based
BmGr9 H358A, sequence (B3GTD7 entry or part of it H358A): as the sequence (B3GTD7 entry or part of it Q351N) above, with N351Q, H358A counted along it

[25] = tested on: BmGr9 F333A; experiment: GCaMP calcium flux assay, BmGr9 F333A; assay type: cell-based, Bombyx mori
[26] = tested on: BmGr9 D165E; experiment: GCaMP calcium flux assay, BmGr9 D165E; assay type: cell-based, Bombyx mori
[27] = target: BmGr9 Q445E (Bombyx mori, UniProt B3GTD7, Q445E); experiment: GCaMP calcium flux assay, BmGr9 Q445E; assay type: cell-based
BmGr9 Q445E, sequence (B3GTD7 entry or part of it Q445E): as the sequence (B3GTD7 entry or part of it Q351N) above, with N351Q, Q445E counted along it

[28] = tested on: BmGr9 T330A; experiment: GCaMP calcium flux assay, BmGr9 T330A; assay type: cell-based, Bombyx mori
[29] = tested on: BmGr9 F444A; experiment: GCaMP calcium flux assay, BmGr9 F444A; assay type: cell-based, Bombyx mori
[30] = tested on: BmGr9 D99N; experiment: GCaMP calcium flux assay, BmGr9 D99N; assay type: cell-based, Bombyx mori
[31] = target: BmGr9 Q443E_Q445R (Bombyx mori, UniProt B3GTD7, Q443E/Q445R); experiment: GCaMP calcium flux assay, BmGr9 Q443E_Q445R; assay type: cell-based
BmGr9 Q443E_Q445R, sequence (B3GTD7 entry or part of it Q443E/Q445R): as the sequence (B3GTD7 entry or part of it Q351N) above, with N351Q, Q443E, Q445R counted along it

[32] = tested on: BmGr9 Y190A; experiment: GCaMP calcium flux assay, BmGr9 Y190A; assay type: cell-based, Bombyx mori
[33] = tested on: BmGr9 Q445R; experiment: GCaMP calcium flux assay, BmGr9 Q445R; assay type: cell-based, Bombyx mori
[34] = tested on: BmGr9 Y332Q; experiment: GCaMP calcium flux assay, BmGr9 Y332Q; assay type: cell-based, Bombyx mori
[35] = tested on: BmGr9 D165A; experiment: GCaMP calcium flux assay, BmGr9 D165A; assay type: cell-based, Bombyx mori
[36] = tested on: BmGr9 W193F; experiment: GCaMP calcium flux assay, BmGr9 W193F; assay type: cell-based, Bombyx mori
[37] = tested on: BmGr9 F333Y; experiment: GCaMP calcium flux assay, BmGr9 F333Y; assay type: cell-based, Bombyx mori
[38] = tested on: BmGr9 R86A; experiment: GCaMP calcium flux assay, BmGr9 R86A; assay type: cell-based, Bombyx mori
[39] = target: BmGr9 Q443D_Q445R (Bombyx mori, UniProt B3GTD7, Q443D/Q445R); experiment: GCaMP calcium flux assay, BmGr9 Q443D_Q445R; assay type: cell-based; details: 95% CI in parentheses
BmGr9 Q443D_Q445R, sequence (B3GTD7 entry or part of it Q443D/Q445R): as the sequence (B3GTD7 entry or part of it Q351N) above, with N351Q, Q443D, Q445R counted along it

[40] = tested on: BmGr9 I440A; experiment: GCaMP calcium flux assay, BmGr9 I440A; assay type: cell-based, Bombyx mori
[41] = target: BmGr9 T330S (Bombyx mori, UniProt B3GTD7, T330S); experiment: GCaMP calcium flux assay, BmGr9 T330S; assay type: cell-based
BmGr9 T330S, sequence (B3GTD7 entry or part of it T330S): as the sequence (B3GTD7 entry or part of it Q351N) above, with T330S, N351Q counted along it

[42] = target: BmGr9 R86K (Bombyx mori, UniProt B3GTD7, R86K); experiment: GCaMP calcium flux assay, BmGr9 R86K; assay type: cell-based
BmGr9 R86K, sequence (B3GTD7 entry or part of it R86K): as the sequence (B3GTD7 entry or part of it Q351N) above, with R86K, N351Q counted along it

[43] = tested on: BmGr9 H358Q; experiment: GCaMP calcium flux assay, BmGr9 H358Q; assay type: cell-based, Bombyx mori
[44] = target: BmGr9 Y190F (Bombyx mori, UniProt B3GTD7, Y190F); experiment: GCaMP calcium flux assay, BmGr9 Y190F; assay type: cell-based; details: 95% CI in parentheses
BmGr9 Y190F, sequence (B3GTD7 entry or part of it Y190F): as the sequence (B3GTD7 entry or part of it Q351N) above, with Y190F, N351Q counted along it

[45] = target: BmGr9 Q443E_Q445K (Bombyx mori, UniProt B3GTD7, Q443E/Q445K); experiment: GCaMP calcium flux assay, BmGr9 Q443E_Q445K; assay type: cell-based
BmGr9 Q443E_Q445K, sequence (B3GTD7 entry or part of it Q443E/Q445K): as the sequence (B3GTD7 entry or part of it Q351N) above, with N351Q, Q443E, Q445K counted along it

[46] = target: BmGr9 Q443D (Bombyx mori, UniProt B3GTD7, Q443D); experiment: GCaMP calcium flux assay, BmGr9 Q443D; assay type: cell-based
BmGr9 Q443D, sequence (B3GTD7 entry or part of it Q443D): as the sequence (B3GTD7 entry or part of it Q351N) above, with N351Q, Q443D counted along it

[47] = target: BmGr9 Q445N (Bombyx mori, UniProt B3GTD7, Q445N); experiment: GCaMP calcium flux assay, BmGr9 Q445N; assay type: cell-based
BmGr9 Q445N, sequence (B3GTD7 entry or part of it Q445N): as the sequence (B3GTD7 entry or part of it Q351N) above, with N351Q, Q445N counted along it

[48] = tested on: BmGr9 Q443N; experiment: GCaMP calcium flux assay, BmGr9 Q443N; assay type: cell-based, Bombyx mori
[49] = target: Bombyx mori gustatory receptor Gr9 (BmGr9) (Bombyx mori) (UniProt B3GTD7); experiment: native gel or EMSA; Coomassie-stained denaturing and native gels of purified BmGr9; effective molecular weight approximately 700 kDa including detergent micelle

OC[C@H]1O[C@H](O[C@]2(CCl)O[C@H](CCl)[C@@H](O)[C@@H]2O)[C@H](O)[C@@H](O)[C@H]1Cl [sucralose]
Activation of BmGr9 (change in fluorescence) by sweet compound [1]: significantly different activity

O=C(CO)[C@@H](O)[C@H](O)[C@H](O)CO [D-fructose]
Activation of BmGr9 (change in fluorescence) by sweet compound [1]: elicited a strong response; also recorded: significantly different activity | EC50 ([1]; EC50, WT BmGr9, 95% CI in parentheses): 8.71 mM | Hill coefficient ([1]; Fig. 1b dose-response, n = 8, 95% CI in parentheses): 2.3 (1.3–4.6) | Hill Slope ([1]; WT BmGr9, 95% CI in parentheses): 1.94 (1.48 to 2.58) | EC50 ([1]; half-maximal activation concentration (EC50), Fig. 1b dose-response, HEK293 cells with BmGr9 and GCaMP6s, n = 8, 95% CI in parentheses): 9 mM and 8.2 mM | activation by D-fructose (Fmax, Hill slope, EC50 fit) [2]: no activity | activation by D-fructose (Fmax, Hill slope, EC50 fit) [3]: no activity | EC50 [4]: ~8 mM | Hill Slope ([4]; Q351N): ~0.71 | Kd ([5]; KD (apparent affinity, tryptophan fluorescence), purified BmGr9 in digitonin, n = 4, 95% CI in parentheses): 16 mM and 15.8 mM | Trp fluorescence emission maximum ([5]; saturating D-fructose, maximum near 330 nm without sugar): 324 nm | activation by D-fructose (Fmax, Hill slope, EC50 fit) [6]: no activity | activation by D-fructose (Fmax, Hill slope, EC50 fit) [7]: no activity | EC50 [8]: 2.01 mM | Hill Slope ([8]; Q445A): ~3.78 | Fluorescence change relative to wild-type BmGr9 ([8]; Q445A, 100 mM D-fructose): more active than wild-type BmGr9 | EC50 [9]: 1.32 mM | apparent affinity relative to wild-type ([9]; Gln443 to Glu): increased apparent affinity | Hill Slope ([9]; Q443E): ~2.57 | Fluorescence change relative to wild-type BmGr9 ([9]; Q443E, 100 mM D-fructose): more active than wild-type BmGr9 | activation by D-fructose (Fmax, Hill slope, EC50 fit) [10]: no activity | activation by D-fructose (Fmax, Hill slope, EC50 fit) [11]: no activity | Hill Slope [12]: ~2.37 | F max ([12]; ~ = CI not determined): ~0.20 | EC50 [13]: 5.5 mM | Hill Slope ([13]; P331A, 95% CI in parentheses): 1.43 (0.87 to 2.39) | EC50 [14]: 3.9 mM | Hill Slope ([14]; Q351A, 95% CI in parentheses): 1.89 (0.60 to 5.26) | F max [15]: ~0.10 | activation by D-fructose (printed in Hill Slope column) [15]: no activity | EC50 [16]: ~18 mM | Hill Slope ([16]; Q443D_Q445K, 95% CI in parentheses): 1.18 (0.24 to 2.87) | activation by D-fructose (Fmax, Hill slope, EC50 fit) [17]: no activity | EC50 [18]: 8.3 mM | Hill Slope ([18]; Y332A, 95% CI in parentheses): 0.99 (0.37 to 2.17) | EC50 [19]: 2.6 mM | apparent affinity relative to wild-type ([19]; Tyr332 to Phe): slightly increases the apparent affinity | Hill Slope ([19]; Y332F): ~2.36 | EC50 [20]: ~0.1 mM | Hill Slope ([20]; F189Y, 95% CI in parentheses): 1.05 (0.44 to 2.15) | EC50 [21]: 1.53 mM | Hill Slope ([21]; Q443E_Q445A, 95% CI in parentheses): 1.58 (0.69 to 6.42) | activation by D-fructose (Fmax, Hill slope, EC50 fit) [22]: no activity | EC50 [23]: ~98 mM | Hill Slope ([23]; T330V): ~6.22 | Hill Slope [24]: ~1.06 | activation by D-fructose (Fmax, Hill slope, EC50 fit) [25]: no activity | F max [26]: ~0.12 | activation by D-fructose (printed in Hill Slope column) [26]: no activity | EC50 [27]: 15.3 mM | Hill Slope ([27]; Q445E, 95% CI in parentheses): 1.56 (0.68 to 3.75) | activation by D-fructose (Fmax, Hill slope, EC50 fit) [28]: no activity | activation by D-fructose (Fmax, Hill slope, EC50 fit) [29]: no activity | activation by D-fructose (Fmax, Hill slope, EC50 fit) [30]: no activity | EC50 [31]: 4.07 mM | Hill Slope ([31]; Q443E_Q445R, 95% CI in parentheses): 2.02 (1.27 to 3.33) | activation by D-fructose (Fmax, Hill slope, EC50 fit) [32]: no activity | activation by D-fructose (Fmax, Hill slope, EC50 fit) [33]: no activity | activation by D-fructose (Fmax, Hill slope, EC50 fit) [34]: no activity | activation by D-fructose (Fmax, Hill slope, EC50 fit) [35]: no activity | activation by D-fructose (Fmax, Hill slope, EC50 fit) [36]: no activity | activation by D-fructose (Fmax, Hill slope, EC50 fit) [37]: no activity | activation by D-fructose (Fmax, Hill slope, EC50 fit) [38]: no activity | Hill Slope [39]: 0.31 (0.13 to 1.13) | activation by D-fructose (Fmax, Hill slope, EC50 fit) [40]: no activity | EC50 [41]: ~100 mM | Hill Slope ([41]; T330S): ~3.03 | EC50 [42]: 10.4 mM | Hill Slope ([42]; R86K): ~2.45 | F max [43]: ~0.14 | Hill Slope [43]: ~1.43 | Hill Slope [44]: 0.98 (0.56 to 2.07) | EC50 [45]: 5.1 mM | Hill Slope ([45]; Q443E_Q445K, 95% CI in parentheses): 2.28 (1.51 to 3.62) | EC50 [46]: 10 mM | Hill Slope ([46]; Q443D, 95% CI in parentheses): 1.52 (0.94 to 2.57) | EC50 [47]: 20.3 mM | Hill Slope ([47]; Q445N, 95% CI in parentheses): 1.49 (0.79 to 2.76) | activation by D-fructose (Fmax, Hill slope, EC50 fit) [48]: no activity

Bombyx mori gustatory receptor Gr9 (BmGr9) (from UniProt B3GTD7 2-449)
stoichiometry N [49]: 4
